Measured values as given in the OligoGym collection.
HELM strings list units from the 5' end as sugar, base in round brackets, then linkage (d deoxyribose, r ribose, m 2'-O-methyl, p phosphodiester). Strings are as the collection lists them; they lack the last nucleoside at the 3' end of the tested compound. [moe] = 2'-O-(2-methoxyethyl) (MOE); [sp] = phosphorothioate linkage; [m5C] = 5-methylcytosine

Molecular target: C9ORF72
Assay: mouse, dose not given
Settings: ASO

| Substance | 3 h FOB score [score 0-7] |
| --- | --- |
| RNA1{[moe](T)[sp].[moe]([m5C])p.[moe](T)p.[moe](G)p.[moe](T)p.[moe]([m5C])p.[moe](T)p.d(T)[sp].d(T)[sp].d(G)[sp].d(G)[sp].d(A)[sp].d(G)[sp].d([m5C])[sp].d([m5C])[sp].d([m5C])[sp].d(A)[sp].[moe](A)[sp].[moe](A)}$$$$ (last 3' nucleoside missing) | 2 |
| RNA1{[moe](T)[sp].[moe]([m5C])p.[moe](T)p.[moe](G)p.[moe](T)p.[moe]([m5C])p.d(T)[sp].d(T)[sp].d(T)[sp].d(G)[sp].d(G)[sp].d(A)[sp].d(G)[sp].d([m5C])[sp].d([m5C])[sp].d([m5C])[sp].[moe](A)p.[moe](A)[sp].[moe](A)}$$$$ (last 3' nucleoside missing) | 4.25 |
| RNA1{[moe](T)[sp].[moe]([m5C])p.[moe](T)p.[moe](G)p.d(T)[sp].d([m5C])[sp].d(T)[sp].d(T)[sp].d(T)[sp].d(G)[sp].d(G)[sp].d(A)[sp].d(G)[sp].d([m5C])[sp].[moe]([m5C])p.[moe]([m5C])p.[moe](A)p.[moe](A)[sp].[moe](A)}$$$$ (last 3' nucleoside missing) | 6.75 |
| RNA1{[moe](T)[sp].[moe]([m5C])p.[moe](T)p.d(G)[sp].d(T)[sp].d([m5C])[sp].d(T)[sp].d(T)[sp].d(T)[sp].d(G)[sp].d(G)[sp].d(A)[sp].d(G)[sp].[moe]([m5C])p.[moe]([m5C])p.[moe]([m5C])p.[moe](A)p.[moe](A)[sp].[moe](A)}$$$$ (last 3' nucleoside missing) | 6.75 |
| RNA1{[moe]([m5C])[sp].[moe](A)p.[moe](G)p.[moe](G)[sp].d([m5C])[sp].d(T)[sp].d(G)[sp].d([m5C])[sp].d(G)[sp].d(G)[sp].d(T)[sp].d(T)[sp].[moe](G)p.[moe](T)p.[moe](T)p.[moe](T)[sp].[moe]([m5C])}$$$$ (last 3' nucleoside missing) | 3.5 |
| RNA1{[moe]([m5C])[sp].[moe](A)p.[moe](G)p.[moe](G)p.[moe]([m5C])p.[moe](T)[sp].d(G)[sp].d([m5C])[sp].d(G)[sp].d(G)[sp].d(T)[sp].d(T)[sp].d(G)[sp].d(T)[sp].[moe](T)p.[moe](T)[sp].[moe]([m5C])}$$$$ (last 3' nucleoside missing) | 4.5 |
| RNA1{[moe]([m5C])[sp].[moe](A)p.[moe](G)p.[moe](G)p.[moe]([m5C])p.[moe](T)p.d(G)[sp].d([m5C])[sp].d(G)[sp].d(G)[sp].d(T)[sp].d(T)[sp].d(G)[sp].d(T)[sp].d(T)[sp].[moe](T)p.[moe]([m5C])[sp].[moe]([m5C])}$$$$ (last 3' nucleoside missing) | 6 |
| RNA1{[moe]([m5C])[sp].[moe](A)p.[moe](G)p.[moe](G)p.[moe]([m5C])p.[moe](T)p.d(G)[sp].d([m5C])[sp].d(G)[sp].d(G)[sp].d(T)[sp].d(T)[sp].d(G)[sp].d(T)[sp].d(T)[sp].d(T)[sp].[moe]([m5C])p.[moe]([m5C])[sp].[moe]([m5C])}$$$$ (last 3' nucleoside missing) | 2 |
| RNA1{[moe]([m5C])[sp].[moe](A)p.[moe](G)p.[moe](G)p.[moe]([m5C])p.d(T)[sp].d(G)[sp].d([m5C])[sp].d(G)[sp].d(G)[sp].d(T)[sp].d(T)[sp].d(G)[sp].d(T)[sp].[moe](T)p.[moe](T)p.[moe]([m5C])[sp].[moe]([m5C])}$$$$ (last 3' nucleoside missing) | 5 |
| RNA1{[moe]([m5C])[sp].[moe](A)p.[moe](G)p.[moe](G)p.d([m5C])[sp].d(T)[sp].d(G)[sp].d([m5C])[sp].d(G)[sp].d(G)[sp].d(T)[sp].d(T)[sp].d(G)[sp].[moe](T)p.[moe](T)p.[moe](T)p.[moe]([m5C])[sp].[moe]([m5C])}$$$$ (last 3' nucleoside missing) | 4 |
| RNA1{[moe]([m5C])[sp].[moe](A)p.[moe](G)p.[moe](G)p.d([m5C])[sp].d(T)[sp].d(G)[sp].d([m5C])[sp].d(G)[sp].d(G)[sp].d(T)[sp].d(T)[sp].d(G)[sp].d(T)[sp].[moe](T)p.[moe](T)p.[moe]([m5C])p.[moe]([m5C])[sp].[moe]([m5C])}$$$$ (last 3' nucleoside missing) | 4.75 |
| RNA1{[moe]([m5C])[sp].[moe](G)p.[moe](G)p.[moe]([m5C])[sp].d([m5C])[sp].d([m5C])[sp].d([m5C])[sp].d(T)[sp].d(A)[sp].d(G)[sp].d([m5C])[sp].d(G)[sp].[moe]([m5C])p.[moe](G)p.[moe]([m5C])p.[moe](G)[sp].[moe](A)}$$$$ (last 3' nucleoside missing) | 7 |
| RNA1{[moe]([m5C])[sp].[moe](G)p.[moe](G)p.[moe]([m5C])p.[moe]([m5C])p.[moe]([m5C])[sp].d([m5C])[sp].d(T)[sp].d(A)[sp].d(G)[sp].d([m5C])[sp].d(G)[sp].d([m5C])[sp].d(G)[sp].[moe]([m5C])p.[moe](G)[sp].[moe](A)}$$$$ (last 3' nucleoside missing) | 4.5 |
| RNA1{[moe]([m5C])[sp].[moe](G)p.[moe](G)p.[moe]([m5C])p.[moe]([m5C])p.[moe]([m5C])p.d([m5C])[sp].d(T)[sp].d(A)[sp].d(G)[sp].d([m5C])[sp].d(G)[sp].d([m5C])[sp].d(G)[sp].d([m5C])[sp].[moe](G)p.[moe](A)[sp].[moe]([m5C])}$$$$ (last 3' nucleoside missing) | 3 |
| RNA1{[moe]([m5C])[sp].[moe](G)p.[moe](G)p.[moe]([m5C])p.[moe]([m5C])p.[moe]([m5C])p.d([m5C])[sp].d(T)[sp].d(A)[sp].d(G)[sp].d([m5C])[sp].d(G)[sp].d([m5C])[sp].d(G)[sp].d([m5C])[sp].d(G)[sp].[moe](A)p.[moe]([m5C])[sp].[moe](T)}$$$$ (last 3' nucleoside missing) | 1.25 |
| RNA1{[moe]([m5C])[sp].[moe](G)p.[moe](G)p.[moe]([m5C])p.[moe]([m5C])p.d([m5C])[sp].d([m5C])[sp].d(T)[sp].d(A)[sp].d(G)[sp].d([m5C])[sp].d(G)[sp].d([m5C])[sp].d(G)[sp].[moe]([m5C])p.[moe](G)p.[moe](A)[sp].[moe]([m5C])}$$$$ (last 3' nucleoside missing) | 4 |
| RNA1{[moe]([m5C])[sp].[moe](G)p.[moe](G)p.[moe]([m5C])p.d([m5C])[sp].d([m5C])[sp].d([m5C])[sp].d(T)[sp].d(A)[sp].d(G)[sp].d([m5C])[sp].d(G)[sp].d([m5C])[sp].[moe](G)p.[moe]([m5C])p.[moe](G)p.[moe](A)[sp].[moe]([m5C])}$$$$ (last 3' nucleoside missing) | 5.25 |
| RNA1{[moe]([m5C])[sp].[moe](G)p.[moe](G)p.[moe]([m5C])p.d([m5C])[sp].d([m5C])[sp].d([m5C])[sp].d(T)[sp].d(A)[sp].d(G)[sp].d([m5C])[sp].d(G)[sp].d([m5C])[sp].d(G)[sp].[moe]([m5C])p.[moe](G)p.[moe](A)p.[moe]([m5C])[sp].[moe](T)}$$$$ (last 3' nucleoside missing) | 1.75 |
| RNA1{[moe]([m5C])[sp].[moe](T)p.[moe](A)p.[moe](G)[sp].d([m5C])[sp].d(G)[sp].d([m5C])[sp].d(G)[sp].d([m5C])[sp].d(G)[sp].d(A)[sp].d([m5C])[sp].[moe](T)p.[moe]([m5C])p.[moe]([m5C])p.[moe](T)[sp].[moe](G)}$$$$ (last 3' nucleoside missing) | 3.25 |
| RNA1{[moe]([m5C])[sp].[moe](T)p.[moe](G)p.[moe](G)p.[moe](T)p.[moe](T)p.[moe](A)p.d(A)[sp].d(T)[sp].d([m5C])[sp].d(T)[sp].d(T)[sp].d(T)[sp].d(A)[sp].d(T)[sp].d([m5C])[sp].d(A)[sp].[moe](G)[sp].[moe](G)}$$$$ (last 3' nucleoside missing) | 2.25 |
| RNA1{[moe]([m5C])[sp].[moe](T)p.[moe](G)p.[moe](G)p.[moe](T)p.[moe](T)p.d(A)[sp].d(A)[sp].d(T)[sp].d([m5C])[sp].d(T)[sp].d(T)[sp].d(T)[sp].d(A)[sp].d(T)[sp].d([m5C])[sp].[moe](A)p.[moe](G)[sp].[moe](G)}$$$$ (last 3' nucleoside missing) | 0 |
| RNA1{[moe]([m5C])[sp].[moe](T)p.[moe](G)p.[moe](G)p.d(T)[sp].d(T)[sp].d(A)[sp].d(A)[sp].d(T)[sp].d([m5C])[sp].d(T)[sp].d(T)[sp].d(T)[sp].d(A)[sp].[moe](T)p.[moe]([m5C])p.[moe](A)p.[moe](G)[sp].[moe](G)}$$$$ (last 3' nucleoside missing) | 0 |
| RNA1{[moe]([m5C])[sp].[moe](T)p.[moe](G)p.[moe]([m5C])p.[moe](G)p.[moe](A)p.[moe](T)p.d([m5C])[sp].d([m5C])[sp].d([m5C])[sp].d([m5C])[sp].d(A)[sp].d(T)[sp].d(T)[sp].d([m5C])[sp].d([m5C])[sp].d(A)[sp].[moe](G)[sp].[moe](T)}$$$$ (last 3' nucleoside missing) | 0.25 |
| RNA1{[moe]([m5C])[sp].[moe](T)p.[moe](G)p.[moe]([m5C])p.[moe](G)p.[moe](A)p.d(T)[sp].d([m5C])[sp].d([m5C])[sp].d([m5C])[sp].d([m5C])[sp].d(A)[sp].d(T)[sp].d(T)[sp].d([m5C])[sp].d([m5C])[sp].[moe](A)p.[moe](G)[sp].[moe](T)}$$$$ (last 3' nucleoside missing) | 0.25 |
| RNA1{[moe]([m5C])[sp].[moe](T)p.[moe](G)p.[moe]([m5C])p.d(G)[sp].d(A)[sp].d(T)[sp].d([m5C])[sp].d([m5C])[sp].d([m5C])[sp].d([m5C])[sp].d(A)[sp].d(T)[sp].d(T)[sp].[moe]([m5C])p.[moe]([m5C])p.[moe](A)p.[moe](G)[sp].[moe](T)}$$$$ (last 3' nucleoside missing) | 1.75 |
| RNA1{[moe]([m5C])[sp].[moe](T)p.[moe](G)p.d(G)[sp].d(T)[sp].d(T)[sp].d(A)[sp].d(A)[sp].d(T)[sp].d([m5C])[sp].d(T)[sp].d(T)[sp].d(T)[sp].[moe](A)p.[moe](T)p.[moe]([m5C])p.[moe](A)p.[moe](G)[sp].[moe](G)}$$$$ (last 3' nucleoside missing) | 0 |
